Measured values reported in ChEMBL document CHEMBL4808180, “Identification of 2,2-Dimethylbutanoic Acid (HST5040), a Clinical Development Candidate for the Treatment of Propionic Acidemia and Methylmalonic Acidemia” (J Med Chem, 2021).

Key:
[1] = Drug metabolism in human hepatocytes assessed as beta-oxidation by measuring phase1 metabolite formation at 50 uM measured after 4 hrs; assay type: ADME, cell-based, Hepatocyte
[2] = Reduction of acetyl carnitine in human hepatocytes derived from methylmalonic acidemia patient at 30 uM pretreated for 30 mins followed by 13C-isoleucine addition and measured after 1 hr by MS/MS analysis; assay type: functional, Hepatocyte; design: scale not given: the % may be the effect or the level left; details: time 90 min, 1.5 h
[3] = Drug metabolism in Gottingen minipig urine assessed as HST5040-glycine metabolite formation at 10 mg/kg administered as single dose by LC/MS analysis; assay type: ADME, organism-based, Sus scrofa domesticus; details: pig, in vivo
[4] = AUC (0 to infinity) in Sprague-Dawley rat at 200 mg/kg, po; assay type: ADME, organism-based; design: route oral, time infinity, dose 200 mg/kg; details: in vivo
[5] = Cmax in CD1 mouse at 300 mg/kg, po; assay type: ADME, organism-based; design: route oral, dose 300 mg/kg; details: in vivo
[6] = Dissociation constant, pKa of the compound; assay type: physicochemical
[7] = Oral bioavailability in CD1 mouse at 30 mg/kg; assay type: ADME, organism-based; details: in vivo
[8] = Oral bioavailability in Sprague-Dawley rat at 50 mg/kg; assay type: ADME, organism-based; details: in vivo
[9] = Reduction of CoASH in human hepatocytes derived from propionic acidemia patient at 30 uM pretreated for 30 mins followed by 13C-isoleucine addition and measured after 1 hr by MS/MS analysis relative to control; assay type: functional, Hepatocyte; design: scale not given: the % may be the effect or the level left; details: time 90 min, 1.5 h
[10] = Induction of toxicity in minipig assessed as induction of adverse effect at 300 mg/kg/day; assay type: organism-based, Sus scrofa domesticus; details: pig, in vivo
[11] = Half life in CD1 mouse at 30 mg/kg, iv; assay type: ADME, organism-based; details: in vivo
Hepatocyte = assay: Cytotoxicity against human hepatocytes assessed as reduction in cell viability using radiolabeled compound; assay type: cell-based
Cytochrome P450 2B6 = target: T1, Cytochrome P450 2B6 (Homo sapiens, UniProt P20813); assay: Time-dependent inhibition of CYP2B6 in human liver microsomes using bupropion as substrate preincubated for 30 mins; assay type: ADME
T1 sequence (P20813 whole entry): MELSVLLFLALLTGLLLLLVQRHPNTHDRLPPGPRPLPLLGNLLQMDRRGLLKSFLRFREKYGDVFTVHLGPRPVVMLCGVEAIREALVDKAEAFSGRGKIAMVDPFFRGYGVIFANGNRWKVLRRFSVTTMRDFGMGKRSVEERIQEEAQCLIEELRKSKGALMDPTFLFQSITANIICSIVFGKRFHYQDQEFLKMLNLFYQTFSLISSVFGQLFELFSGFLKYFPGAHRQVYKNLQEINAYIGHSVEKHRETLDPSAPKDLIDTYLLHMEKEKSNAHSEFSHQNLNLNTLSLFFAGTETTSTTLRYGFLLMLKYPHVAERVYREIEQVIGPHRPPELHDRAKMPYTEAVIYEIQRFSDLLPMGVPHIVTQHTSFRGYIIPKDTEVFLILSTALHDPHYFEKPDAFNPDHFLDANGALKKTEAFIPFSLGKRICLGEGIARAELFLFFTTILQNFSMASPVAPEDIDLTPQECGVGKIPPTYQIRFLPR

[12] = Induction of toxicity in minipig assessed as increase in vacuole size in the epithelial cells of renal tubules at >=50 mg/kg; assay type: organism-based, Sus scrofa domesticus; details: pig, in vivo
[13] = Tmax in Sprague-Dawley rat at 10 mg/kg, po; assay type: ADME, organism-based; details: in vivo
[14] = Reduction of propionyl-CoA in human hepatocytes derived from propionic acidemia patient pretreated for 30 mins followed by 13C-isoleucine addition and measured after 1 hr by MS/MS analysis; assay type: functional, cell-based; details: hepatocyte
[15] = Drug metabolism in Sprague-Dawley rat urine assessed as HST5040-carnitine metabolite formation at 10 mg/kg administered as single dose by LC/MS analysis; assay type: ADME, organism-based; details: in vivo
[16] = Tmax in Sprague-Dawley rat at 200 mg/kg, po; assay type: ADME, organism-based; details: in vivo
[17] = Induction of toxicity in minipig assessed as increase in serum albumin concentration at 300 mg/kg/day; assay type: organism-based, Sus scrofa domesticus; details: pig, in vivo
[18] = AUC (0 to infinity) in CD1 mouse at 300 mg/kg, iv; assay type: ADME, organism-based; design: route intravenous, time infinity, dose 300 mg/kg; details: in vivo
[19] = Stability in human hepatocytes assessed as unchanged compound at 50 uM measured after 4 hrs; assay type: ADME, cell-based, Hepatocyte; details: read-out: Stabilty
[20] = Reduction of 2-Methylcitric acid in human hepatocytes derived from propionic acidemia patient at 30 uM pretreated for 30 mins followed by 13C-isoleucine addition and measured after 1 hr by MS/MS analysis relative to control; assay type: functional, Hepatocyte; design: scale not given: the % may be the effect or the level left; details: time 90 min, 1.5 h
[21] = Drug metabolism in rat hepatocytes assessed as beta-oxidation by measuring phase1 metabolite formation at 50 uM measured after 4 hrs; assay type: ADME, cell-based, Hepatocyte
[22] = Drug level in Gottingen minipig blood at 10 mg/kg, po using radiolabeled compound measured after 96 hrs by quantitative whole-body autoradiography; assay type: ADME, organism-based, Sus scrofa domesticus; details: pig, in vivo, BLD = below limit of detection
[23] = Solubility in pH 7-buffered water; assay type: physicochemical
[24] = Tmax in Sprague-Dawley rat at 50 mg/kg, po; assay type: ADME, organism-based; details: in vivo
[25] = Drug metabolism in cynomolgus monkey hepatocytes assessed as formation of 2,2-dimethylbutanoic acid-CoA incubated for 1 hrs by MS/MS analysis; assay type: ADME, cell-based; details: Macaca fascicularis, Hepatocyte
[26] = Drug metabolism in minipig hepatocytes assessed as beta-oxidation by measuring phase1 metabolite formation at 50 uM measured after 4 hrs; assay type: ADME, cell-based, Sus scrofa domesticus, Hepatocyte; details: pig
[27] = AUC (0 to infinity) in Gottingen minipig at 10 mg/kg, po using radiolabeled compound by quantitative whole-body autoradiography; assay type: ADME, organism-based, Sus scrofa domesticus; design: time infinity, route oral, dose 10 mg/kg; details: pig, in vivo
[28] = Ratio of drug level in erythrocyte to plasma in Sprague-Dawley rat; assay type: ADME; details: erythrocytes and plasma
[29] = Clearance in Sprague-Dawley rat at 10 mg/kg, iv; assay type: ADME, organism-based; details: in vivo
[30] = Drug metabolism in Gottingen minipig urine assessed as HST5040-carnitine metabolite formation at 10 mg/kg administered as single dose by LC/MS analysis; assay type: ADME, organism-based, Sus scrofa domesticus; details: pig, in vivo
[31] = target: T2, Multidrug and toxin extrusion protein 2 (Homo sapiens, UniProt Q86VL8); assay: Inhibition of human MATE2K assessed as reduction in MATE2K-mediated metformin transport at 14900 uM relative to control
T2 sequence (Q86VL8 whole entry): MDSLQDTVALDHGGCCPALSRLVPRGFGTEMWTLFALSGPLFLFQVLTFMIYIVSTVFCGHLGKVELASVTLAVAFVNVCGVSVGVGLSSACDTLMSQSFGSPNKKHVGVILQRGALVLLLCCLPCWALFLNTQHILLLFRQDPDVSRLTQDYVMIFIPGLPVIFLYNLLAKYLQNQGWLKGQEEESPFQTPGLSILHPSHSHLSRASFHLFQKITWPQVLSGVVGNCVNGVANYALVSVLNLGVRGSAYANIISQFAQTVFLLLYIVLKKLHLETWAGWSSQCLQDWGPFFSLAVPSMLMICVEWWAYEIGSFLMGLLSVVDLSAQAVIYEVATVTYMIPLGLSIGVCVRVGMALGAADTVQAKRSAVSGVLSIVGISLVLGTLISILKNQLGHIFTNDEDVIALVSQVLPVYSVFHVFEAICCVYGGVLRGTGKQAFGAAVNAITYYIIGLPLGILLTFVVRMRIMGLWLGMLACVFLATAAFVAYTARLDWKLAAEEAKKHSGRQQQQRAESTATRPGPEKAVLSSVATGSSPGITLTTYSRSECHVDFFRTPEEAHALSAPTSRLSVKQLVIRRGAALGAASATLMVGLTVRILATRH

[32] = Oral bioavailability in Sprague-Dawley rat at 10 mg/kg; assay type: ADME, organism-based; details: in vivo

- Drug metabolism [1]: Metabolite_Notdetected
- Drug metabolism [3]: Metabolite_Detected
- AUC(0-inf) [4]: 244 µg·h/mL
- Cmax [5]: 465 µg/mL
- pKa [6]: 4.4
- bioavailability [7]: 53.4%
- bioavailability [8]: 68.3%
- half-life [11]: 49.9 min
- IC50 (Cytochrome P450 2B6): > 10000 µM
- Tmax [13]: 15 min
- Drug metabolism [15]: Metabolite_Detected
- Tmax [16]: 25 min
- AUC(0-inf) [18]: 1250 µg·h/mL
- remaining at 4 h, 50 µM [19]: 88%
- Drug metabolism [21]: Metabolite_Notdetected
- Drug uptake [22]: Bld
- solubility [23]: > 50 mg/mL
- Tmax [24]: 20 min
- Drug metabolism [26]: Metabolite_Notdetected
- AUC [27]: 91.3 µg·h/mL
- Kp [28]: 0.649
- clearance [29]: 17.3 mL/min/kg
- Drug metabolism [30]: Metabolite_Detected
- bioavailability [32]: 57.1%
Structure (SMILES): CCC(C)(C)C(=O)O [DIMEBUTIC ACID]
- Activity [2]: 44.6%
- Activity [9]: -31.3%
- Activity [10]: Non-Toxic
- Activity (Hepatocyte): Non-Toxic
- Activity [12]: Toxic
- EC50 [14]: 0.94 µM
- Activity [17]: Toxic
- Activity [20]: -78.6%
- EC50 [25]: 46.2 µM
- inhibition (INH) [31]: Not Active
